The text below walks through data of patent publication US20090324513A1, “Process for Producing Chlorinated Sucrose” (Pharmed Medicare Private Limited, priority 2004, published 2009).

Where “and” joins values, the source holds several entries; their conditions need not be identical. Equal values may be shown once.

A short description of data set [1]: Particle size evaluated in Microtrac-X100 equipment. The class given is physicochemical. The note with it: for Particle size: other batches, ethyl acetate crystallization. As to the method:
The particle size was evaluated in Microtrac—X100 equipment.

Data set [2] can be described thus: Solubility test of product batch. The class given is physicochemical. The note with it: result against specification: Soluble in ethanol and water. Slightly soluble in ethyl acetate.

Compound `OC[C@H]1O[C@H](O[C@]2(CCl)O[C@H](CCl)[C@@H](O)[C@@H]2O)[C@H](O)[C@@H](O)[C@H]1Cl` [PP 02] had a Particle size in data set [1] (90% of particles) of 90% ≦ 9.125 microns.

For `OC[C@H]1O[C@@H](O[C@]2(CCl)O[C@H](CCl)[C@@H](O)[C@@H]2O)[C@H](O)[C@@H](O)[C@H]1Cl` [conventional crystallization batch, 1′,6′-Dichloro-1′,6′-Dideoxy-â-D-Fructo-Furanosyl-4-Chloro-4-Deoxy-â-D-Galactopyranoside], the “individual crystal particle size at percentage” value in data set [1] (10% of particles) is 0.956 microns; in data set [1] (20% of particles), 1.541 microns; in data set [1] (30% of particles), 2.093 microns; in data set [1] (40% of particles) it was 2.605 microns; in data set [1] (50% of particles), 3.274 microns; in data set [1] (60% of particles), 4.236 microns. The “individual crystal particle size at percentage” value was 5.311 microns in data set [1] (70% of particles); 6.615 microns in data set [1] (80% of particles); “below 9.185 microns and 9.185 microns” in data set [1] (90% of particles, listed as crystallized product); 11.51 microns in data set [1] (95% of particles). Besides, the Solubility entry in data set [2] is “Complies”.

In the case of `OC[C@H]1O[C@H](O[C@]2(CCl)O[C@H](CCl)[C@@H](O)[C@@H]2O)[C@H](O)[C@@H](O)[C@H]1Cl` [PRO 05], the Particle size in data set [1] (90% of particles) was 90% ≦ 9.183 microns.

In data set [1] (90% of particles), `OC[C@H]1O[C@H](O[C@]2(CCl)O[C@H](CCl)[C@@H](O)[C@@H]2O)[C@H](O)[C@@H](O)[C@H]1Cl` [PRO 01] displayed a Particle size of 90% ≦ 9.035 microns.

`OC[C@H]1O[C@H](O[C@]2(CCl)O[C@H](CCl)[C@@H](O)[C@@H]2O)[C@H](O)[C@@H](O)[C@H]1Cl` [PP 03] came in with a Particle size in data set [1] (90% of particles) of 90% ≦ 9.165 microns.
